Results on 27 compounds are retold here after patent publication US20220024906A1, “COMPOUNDS AND COMPOSITIONS FOR TREATING CONDITIONS ASSOCIATED WITH STING ACTIVITY” (IFM Due, Inc., priority 2020, published 2022).

The experiment addresses T1, hSTING (Homo sapiens, UniProt Q86WV6, G230A/H232R/R293Q/R71H).
T1 construct: host or cells: THP1-Dual KO-IFNAR2 cells
The experiment in a line: STING reporter assay (luciferase) in THP1-Dual KO-IFNAR2 cells stimulated with 2′3′cGAMP. The format is cell-based. Particulars: 15 μM 2′3′cGAMP transfected, 24 h, luciferase reporter activity. The protocol:
STING pathway activation by the compounds described herein was measured using THP1-Dual™ cells (KO-IFNAR2).
THP1-Dual™ KO-IFNAR2 Cells (obtained from invivogen) were maintained in RPMI, 10% FCS, 5 ml P/S, 2 mM L-glut, 10 mM Hepes, and 1 mM sodium pyruvate. Compounds were spotted in empty 384 well tissue culture plates (Greiner 781182) by Echo for a final concentration of 0.0017-100 μM. Cells were plated into the TC plates at 40 μL per well, 2×10E6 cells/mL. For activation with STING ligand, 2′3′cGAMP (MW 718.38, obtained from Invivogen), was prepared in Optimem media.
The following solutions were prepared for each 1×384 plate: • Solution A: 2 mL Optimem with one of the following stimuli: • 60 μL of 10 mM 2′3′cGAMP→150 μM stock • Solution B: 2 mL Optimem with 60 μL Lipofectamine 2000→Incubate 5 min at RT
2 mL of solution A and 2 ml Solution B was mixed and incubated for 20 min at room temperature (RT). 20 μL of transfection solution (A+B) was added on top of the plated cells, with a final 2′3′cGAMP concentration of 15 μM. The plates were then centrifuged immediately at 340 g for 1 minute, after which they were incubated at 37° C., 5% CO2, >98% humidity for 24 h. Luciferase reporter activity was then measured. EC50 values were calculated by using standard methods known in the art.
Luciferase reporter assay: 10 μL of supernatant from the assay was transferred to white 384-plate with flat bottom and squared wells. One pouch of QUANTI-Luc™ Plus was dissolved in 25 mL of water. 100 μL of QLC Stabilizer per 25 mL of QUANTI-Luc™ Plus solution was added. 50 μL of QUANTI-Luc™ Plus/QLC solution per well was then added. Luminescence was measured on a Platereader (e.g., Spectramax I3X (Molecular Devices GF3637001)).
Luciferase reporter activity was then measured. EC50 values were calculated by using standard methods known in the art.

Molecules are shown by their SMILES.

T1 sequence (Q86WV6 whole entry R71H/G230A/H232R/R293Q): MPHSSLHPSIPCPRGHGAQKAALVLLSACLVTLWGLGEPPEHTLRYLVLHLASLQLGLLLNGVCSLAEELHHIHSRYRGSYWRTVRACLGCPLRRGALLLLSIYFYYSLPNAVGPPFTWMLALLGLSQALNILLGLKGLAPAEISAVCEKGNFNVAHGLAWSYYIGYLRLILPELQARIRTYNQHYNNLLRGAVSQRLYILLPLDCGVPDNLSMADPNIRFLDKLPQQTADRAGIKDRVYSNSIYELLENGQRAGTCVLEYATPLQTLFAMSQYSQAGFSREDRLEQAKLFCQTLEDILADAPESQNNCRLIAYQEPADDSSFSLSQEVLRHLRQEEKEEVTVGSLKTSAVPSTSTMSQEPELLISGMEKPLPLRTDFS

The compound `O=C(Nc1c[nH]c2cc(F)c(F)cc12)[C@H]1CCN(C(=O)OCc2ccccc2)C1` [Compound 115, benzyl (S)-3-((5,6-difluoro-1H-indol-3-yl)carbamoyl)pyrrolidine-1-carboxylate] yielded an EC50 of 5 to 100 µM.

In turn, `CC(Oc1ccc(OC(F)(F)F)cc1)C(=O)Nc1c[nH]c2cc(F)c(F)cc12` (stereo not drawn) [Compound 130, N-(5,6-difluoro-1H-indol-3-yl)-2-(4-(trifluoromethoxy)phenoxy)propanamide] showed an EC50 of 1 to 5 µM.

As to `COc1ccc(/C=C(\C)C(=O)Nc2c[nH]c3cc(F)c(F)cc23)cc1` [Compound 110, (E)-N-(5,6-difluoro-1H-indol-3-yl)-3-(4-methoxyphenyl)-2-methylacrylamide], the EC50 lay in the range of 0.2 to 1 µM.

`COc1ccc(CC(=O)Nc2c[nH]c3cc(F)c(F)cc23)cc1C(F)(F)F` [Compound 132, N-(5,6-difluoro-1H-indol-3-yl)-2-(4-methoxy-3-(trifluoromethyl)phenyl)acetamide] gave an EC50 of 5 to 100 µM.

As to `Cc1ccc(OCCC(=O)Nc2c[nH]c3cc(F)c(F)cc23)cc1` [Compound 120, N-(5,6-difluoro-1H-indol-3-yl)-3-(p-tolyloxy)propanamide], the EC50 is 0.2 to 1 µM.

`Cc1nc(CC(=O)Nc2c[nH]c3ccc(-c4cnn(-c5ccc(C(F)(F)F)cc5)c4)cc23)cs1` [Compound 165, 2-(2-methylthiazol-4-yl)-N-(5-(1-(4-(trifluoromethyl)phenyl)-1H-pyrazol-4-yl)-1H-indol-3-yl)acetamide] gave an EC50 of 0.2 to 1 µM.

For `O=C(CCc1ccc(OC(F)(F)F)cc1)Nc1c[nH]c2cc(F)c(F)cc12` [Compound 104, N-(5,6-difluoro-1H-indol-3-yl)-3-(4-(trifluoromethoxy)phenyl)propanamide], the EC50 lay in the range of 0.2 to 1 µM.

For `Cc1ccc(OC(C)(C)C(=O)Nc2c[nH]c3cc(F)c(F)cc23)nc1` [Compound 105, N-(5,6-difluoro-1H-indol-3-yl)-2-methyl-2-((5-methylpyridin-2-yl)oxy)propanamide], the 50% effective concentration (EC50) is 5 to 100 µM.

`O=C(CCn1ccnc1)Nc1c[nH]c2ccc(-c3cnn(-c4ccc(C(F)(F)F)cc4)c3)cc12` [Compound 142, 3-(1H-imidazol-1-yl)-N-(5-(1-(4-(trifluoromethyl)phenyl)-1H-pyrazol-4-yl)-1H-indol-3-yl)propanamide] showed an EC50 of 0.2 to 1 µM.

As to `COc1ccc(CCC(=O)Nc2c[nH]c3cc(F)c(F)cc23)cn1` [Compound 116, N-(5,6-difluoro-1H-indol-3-yl)-3-(6-methoxypyridin-3-yl)propanamide], the EC50 is 5 to 100 µM.

Turning to `O=C(Nc1c[nH]c2cc(F)c(F)cc12)C1CC(Oc2ccccc2)C1` (stereo not drawn) [Compound 114, N-(5,6-difluoro-1H-indol-3-yl)-3-phenoxycyclobutane-1-carboxamide], the EC50 was in the range of 1 to 5 µM.

Compound `O=C(CCc1ncccn1)Nc1c[nH]c2ccc(-c3cnn(-c4ccc(C(F)(F)F)cc4)c3)cc12` [Compound 147, 3-(pyrimidin-2-yl)-N-(5-(1-(4-(trifluoromethyl)phenyl)-1H-pyrazol-4-yl)-1H-indol-3-yl)propanamide] returned an EC50 of 0.2 to 1 µM.

The compound `O=C(Cn1cncn1)Nc1c[nH]c2ccc(-c3cnn(-c4ccc(C(F)(F)F)cc4)c3)cc12` [Compound 164, 2-(1H-1,2,4-triazol-1-yl)-N-(5-(1-(4-(trifluoromethyl)phenyl)-1H-pyrazol-4-yl)-1H-indol-3yl)acetamide] yielded an EC50 of 1 to 5 µM.

For `Cc1noc(C)c1CC(=O)Nc1c[nH]c2ccc(-c3cnn(-c4ccc(C(F)(F)F)cc4)c3)cc12` [Compound 160, 2-(3,5-dimethylisoxazol-4-yl)-N-(5-(1-(4-(trifluoromethyl)phenyl)-1H-pyrazol-4-yl)-1H-indol-3-yl)acetamide], the EC50 was 1 to 5 µM.

In turn, `O=C(CS(=O)(=O)C1CC1)Nc1c[nH]c2ccc(-c3cnn(-c4ccc(C(F)(F)F)cc4)c3)cc12` [Compound 158, 2-(cyclopropylsulfonyl)-N-(5-(1-(4-(trifluoromethyl)phenyl)-1H-pyrazol-4-yl)-1H-indol-3-yl)acetamide] returned an EC50 of 0.2 to 1 µM.

As for `CC(C)(Oc1ccc(F)cc1)C(=O)Nc1c[nH]c2cc(F)c(F)cc12` [Compound 134, N-(5,6-difluoro-1H-indol-3-yl)-2-(4-fluorophenoxy)-2-methylpropanamide], the EC50 was in the range of 5 to 100 µM.

Compound `O=C(Nc1c[nH]c2cc(F)c(F)cc12)C1CN(Cc2ccccc2)CCO1` (stereo not drawn) [Compound 118, 4-benzyl-N-(5,6-difluoro-1H-indol-3-yl)morpholine-2-carboxamide] yielded an EC50 of 1 to 5 µM.

Consider `COC1(CC(=O)Nc2c[nH]c3ccc(-c4cnn(-c5ccc(C(F)(F)F)cc5)c4)cc23)CCC1` [Compound 163, 2-(1-methoxycyclobutyl)-N-(5-(1-(4-(trifluoromethyl)phenyl)-1H-pyrazol-4-yl)-1H-indol-3-yl)acetamide], for which the EC50 fell in the range of 0.2 to 1 µM.

Turning to `O=C(Cc1cnc(N2CCC(F)(F)CC2)c(Cl)c1)Nc1c[nH]c2ccc(Br)cc12` [Compound 101, N-(5-bromo-1H-indol-3-yl)-2-(5-chloro-6-(4,4-difluoropiperidin-1-yl)pyridin-3-yl)acetamide], the EC50 was 0.2 to 1 µM.

Turning to `O=C(Nc1c[nH]c2ccc(-c3cnn(-c4ccc(C(F)(F)F)cc4)c3)cc12)C(O)c1ccccc1` (stereo not drawn) [Compound 154, 2-hydroxy-2-phenyl-N-(5-(1-(4-(trifluoromethyl)phenyl)-1H-pyrazol-4-yl)-1H-indol-3-yl)acetamide], the EC50 was in the range of 1 to 5 µM.

Turning to `COc1cccc(CCC(=O)Nc2c[nH]c3cc(F)c(F)cc23)n1` [Compound 108, N-(5,6-difluoro-1H-indol-3-yl)-3-(6-methoxypyridin-2-yl)propanamide], the EC50 was 5 to 100 µM.

Compound `Cn1cc(CC(=O)Nc2c[nH]c3ccc(-c4cnn(-c5ccc(C(F)(F)F)cc5)c4)cc23)cn1` [Compound 146, 2-(1-methyl-1H-pyrazol-4-yl)-N-(5-(1-(4-(trifluoromethyl)phenyl)-1H-pyrazol-4-yl)-1H-indol-3-yl)acetamide] displayed an EC50 of 0.2 to 1 µM.

As to `O=C(CCc1cncc(C(F)(F)F)c1)Nc1c[nH]c2cc(F)c(F)cc12` [Compound 119, N-(5,6-difluoro-1H-indol-3-yl)-3-(5-(trifluoromethyl)pyridin-3-yl)propanamide], the EC50 was in the range of 1 to 5 µM.

In turn, `C[C@H](NC1CCCCC1)C(=O)Nc1c[nH]c2cc(F)c(F)cc12` [Compound 113, (S)-2-(cyclohexylamino)-N-(5,6-difluoro-1H-indol-3-yl)propanamide] had an EC50 of 5 to 100 µM.

`N#Cc1cc(CC(=O)Nc2c[nH]c3cc(F)c(F)cc23)ccn1` [Compound 107, 2-(2-cyanopyridin-4-yl)-N-(5,6-difluoro-1H-indol-3-yl)acetamide] came in with an EC50 of 1 to 5 µM.

In the case of `O=C(CCn1cncn1)Nc1c[nH]c2ccc(-c3cnn(-c4ccc(C(F)(F)F)cc4)c3)cc12` [Compound 159, 3-(1H-1,2,4-triazol-1-yl)-N-(5-(1-(4-(trifluoromethyl)phenyl)-1H-pyrazol-4-yl)-1H-indol-3-yl)propanamide], the EC50 was in the range of 0.2 to 1 µM.

Regarding `O=C(CCc1cnoc1)Nc1c[nH]c2ccc(-c3cnn(-c4ccc(C(F)(F)F)cc4)c3)cc12` [Compound 139, 3-(isoxazol-4-yl)-N-(5-(1-(4-(trifluoromethyl)phenyl)-1H-pyrazol-4-yl)-1H-indol-3-yl)propanamide], the EC50 was in the range of 0.2 to 1 µM.
